Experimental data: patent publication US11358949B2, “Carbamate and urea compounds as multikinase inhibitors” (ANGEX PHARMACEUTICAL, INC., priority 2017, dated 2022)

Columns and labels:
TYRO3/SKY = target: T1, TYRO3/SKY (Homo sapiens, UniProt Q06418); assay: HotSpot Kinase Assay, TYRO3/SKY
T1 sequence (Q06418 41-890): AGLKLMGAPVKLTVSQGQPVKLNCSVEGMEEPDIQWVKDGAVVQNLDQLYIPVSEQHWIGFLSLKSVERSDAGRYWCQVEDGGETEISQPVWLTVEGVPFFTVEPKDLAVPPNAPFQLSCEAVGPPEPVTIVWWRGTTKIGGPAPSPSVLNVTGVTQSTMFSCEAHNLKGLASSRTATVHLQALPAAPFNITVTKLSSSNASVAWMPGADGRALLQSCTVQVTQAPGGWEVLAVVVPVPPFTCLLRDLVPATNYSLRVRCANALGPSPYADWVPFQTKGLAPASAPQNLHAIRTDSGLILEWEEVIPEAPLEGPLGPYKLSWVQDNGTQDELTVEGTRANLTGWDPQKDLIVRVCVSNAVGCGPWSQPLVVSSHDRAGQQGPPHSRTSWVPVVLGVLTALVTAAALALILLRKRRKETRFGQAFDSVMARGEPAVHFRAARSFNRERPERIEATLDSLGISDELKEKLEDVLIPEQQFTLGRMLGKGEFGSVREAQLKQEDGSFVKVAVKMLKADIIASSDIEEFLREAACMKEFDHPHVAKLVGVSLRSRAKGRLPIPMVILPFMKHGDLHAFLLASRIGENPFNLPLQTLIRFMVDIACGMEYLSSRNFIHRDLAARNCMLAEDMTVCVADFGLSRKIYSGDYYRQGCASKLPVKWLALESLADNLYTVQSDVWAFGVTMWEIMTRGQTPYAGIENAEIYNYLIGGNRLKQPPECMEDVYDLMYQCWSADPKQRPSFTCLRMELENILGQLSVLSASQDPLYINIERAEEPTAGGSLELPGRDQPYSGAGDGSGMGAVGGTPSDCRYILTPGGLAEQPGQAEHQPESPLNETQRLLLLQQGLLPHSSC
Procedure: (§1) Specifically, for each reaction, kinase and substrate were mixed in a pH 7.5 buffer containing 20 mM HEPES, 10 mM MgCl2, 1 mM EGTA [Ethylene glycol-bis(2-aminoethylether)-N,N,N′,N′-tetraacetic acid], 0.02% Brij35, 0.02 mg/mL BSA (Bovine Serum Albumin), 0.1 mM Na3VO4, 2 mM DTT, and 1% DMSO. Compounds were then added to each reaction mixture. After a 20-min incubation, ATP (Sigma-Aldrich) and [γ-^33P] ATP (PerkinElmer) were added at a final total concentration of 100 μM. Reactions were carried out at room temperature for 2 hours and spotted onto P81 ion exchange cellulose chromatography paper (Whatman). […] The percent remaining kinase activity relative to a vehicle-containing (DMSO) kinase reaction was calculated for each kinase/inhibitor pair. […] IC50 values were calculated using Prism 5 (GraphPad).

AXL = target: T2, AXL (Homo sapiens, UniProt P30530); assay: HotSpot Kinase Assay, AXL
T2 sequence (P30530 26-894): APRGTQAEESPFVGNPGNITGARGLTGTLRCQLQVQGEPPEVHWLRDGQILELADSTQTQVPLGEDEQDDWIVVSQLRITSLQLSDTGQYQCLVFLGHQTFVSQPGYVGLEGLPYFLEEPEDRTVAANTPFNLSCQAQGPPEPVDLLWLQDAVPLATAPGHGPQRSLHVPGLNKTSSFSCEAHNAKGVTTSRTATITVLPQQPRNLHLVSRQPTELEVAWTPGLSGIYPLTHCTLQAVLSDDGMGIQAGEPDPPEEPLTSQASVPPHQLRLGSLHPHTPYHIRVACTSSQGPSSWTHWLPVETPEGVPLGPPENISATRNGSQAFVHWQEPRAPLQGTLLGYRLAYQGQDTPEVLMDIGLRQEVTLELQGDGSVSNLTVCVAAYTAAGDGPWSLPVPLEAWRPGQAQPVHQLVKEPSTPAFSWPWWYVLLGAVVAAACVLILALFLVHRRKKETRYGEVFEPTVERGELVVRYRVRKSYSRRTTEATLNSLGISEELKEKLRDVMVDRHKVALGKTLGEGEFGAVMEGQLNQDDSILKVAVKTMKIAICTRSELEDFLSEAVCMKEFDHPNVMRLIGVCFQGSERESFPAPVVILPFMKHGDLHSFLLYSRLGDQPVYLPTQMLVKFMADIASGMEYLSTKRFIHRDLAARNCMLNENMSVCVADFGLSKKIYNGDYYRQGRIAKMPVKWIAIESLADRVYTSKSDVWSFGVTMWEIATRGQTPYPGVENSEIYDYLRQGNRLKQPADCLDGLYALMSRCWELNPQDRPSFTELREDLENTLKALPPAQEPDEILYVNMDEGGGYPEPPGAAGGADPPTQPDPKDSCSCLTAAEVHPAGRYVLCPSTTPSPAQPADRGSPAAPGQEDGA

c-MER = target: T3, c-MER (Homo sapiens, UniProt Q12866); assay: HotSpot Kinase Assay, c-MER
T3 sequence (Q12866 21-999): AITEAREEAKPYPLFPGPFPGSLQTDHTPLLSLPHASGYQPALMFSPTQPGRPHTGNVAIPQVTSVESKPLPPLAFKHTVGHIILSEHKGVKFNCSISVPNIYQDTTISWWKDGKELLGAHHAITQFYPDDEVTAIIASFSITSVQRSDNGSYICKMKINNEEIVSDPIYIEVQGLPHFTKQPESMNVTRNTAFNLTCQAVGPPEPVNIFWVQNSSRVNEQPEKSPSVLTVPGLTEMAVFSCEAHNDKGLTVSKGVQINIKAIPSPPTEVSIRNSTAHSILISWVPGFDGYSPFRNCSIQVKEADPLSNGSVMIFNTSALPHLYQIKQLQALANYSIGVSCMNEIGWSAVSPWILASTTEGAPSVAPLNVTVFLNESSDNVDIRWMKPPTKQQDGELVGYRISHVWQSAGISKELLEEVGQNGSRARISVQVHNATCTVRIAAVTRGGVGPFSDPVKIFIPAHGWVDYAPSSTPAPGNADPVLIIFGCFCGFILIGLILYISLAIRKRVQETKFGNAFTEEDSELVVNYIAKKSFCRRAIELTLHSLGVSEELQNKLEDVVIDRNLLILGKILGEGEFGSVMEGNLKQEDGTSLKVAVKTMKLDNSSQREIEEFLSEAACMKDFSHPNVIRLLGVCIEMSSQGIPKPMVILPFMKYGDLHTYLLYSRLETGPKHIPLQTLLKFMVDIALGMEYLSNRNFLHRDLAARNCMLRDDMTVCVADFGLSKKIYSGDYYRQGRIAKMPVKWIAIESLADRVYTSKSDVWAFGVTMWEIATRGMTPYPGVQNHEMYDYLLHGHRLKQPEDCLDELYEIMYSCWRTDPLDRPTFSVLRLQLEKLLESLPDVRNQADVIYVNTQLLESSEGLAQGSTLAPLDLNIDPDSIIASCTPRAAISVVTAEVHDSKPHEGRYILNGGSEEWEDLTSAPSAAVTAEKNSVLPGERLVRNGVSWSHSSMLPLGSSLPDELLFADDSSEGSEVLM
Procedure: as §1

LOK/STK10 = LOK/STK10 (Homo sapiens, UniProt O94804); assay: HotSpot Kinase Assay, LOK/STK10
Procedure: as §1

c-MET = c-MET (Homo sapiens, UniProt P08581); assay: HotSpot Kinase Assay, c-MET
EPHA2 = EPHA2 (Homo sapiens, UniProt P29317); assay: HotSpot Kinase Assay, EPHA2
Procedure: as §1

KDR/VEGFR2 = KDR/VEGFR2 (Homo sapiens, UniProt P35968); assay: HotSpot Kinase Assay, KDR/VEGFR2
Procedure: as §1

DDR1 = DDR1 (Homo sapiens, UniProt Q08345); assay: HotSpot Kinase Assay, DDR1
FMS = FMS (Homo sapiens, UniProt P07333); assay: HotSpot Kinase Assay, FMS
Procedure: as §1

c-Kit = c-Kit (Homo sapiens, UniProt P10721); assay: HotSpot Kinase Assay, c-Kit
Chain of c-Kit (P10721 26-976): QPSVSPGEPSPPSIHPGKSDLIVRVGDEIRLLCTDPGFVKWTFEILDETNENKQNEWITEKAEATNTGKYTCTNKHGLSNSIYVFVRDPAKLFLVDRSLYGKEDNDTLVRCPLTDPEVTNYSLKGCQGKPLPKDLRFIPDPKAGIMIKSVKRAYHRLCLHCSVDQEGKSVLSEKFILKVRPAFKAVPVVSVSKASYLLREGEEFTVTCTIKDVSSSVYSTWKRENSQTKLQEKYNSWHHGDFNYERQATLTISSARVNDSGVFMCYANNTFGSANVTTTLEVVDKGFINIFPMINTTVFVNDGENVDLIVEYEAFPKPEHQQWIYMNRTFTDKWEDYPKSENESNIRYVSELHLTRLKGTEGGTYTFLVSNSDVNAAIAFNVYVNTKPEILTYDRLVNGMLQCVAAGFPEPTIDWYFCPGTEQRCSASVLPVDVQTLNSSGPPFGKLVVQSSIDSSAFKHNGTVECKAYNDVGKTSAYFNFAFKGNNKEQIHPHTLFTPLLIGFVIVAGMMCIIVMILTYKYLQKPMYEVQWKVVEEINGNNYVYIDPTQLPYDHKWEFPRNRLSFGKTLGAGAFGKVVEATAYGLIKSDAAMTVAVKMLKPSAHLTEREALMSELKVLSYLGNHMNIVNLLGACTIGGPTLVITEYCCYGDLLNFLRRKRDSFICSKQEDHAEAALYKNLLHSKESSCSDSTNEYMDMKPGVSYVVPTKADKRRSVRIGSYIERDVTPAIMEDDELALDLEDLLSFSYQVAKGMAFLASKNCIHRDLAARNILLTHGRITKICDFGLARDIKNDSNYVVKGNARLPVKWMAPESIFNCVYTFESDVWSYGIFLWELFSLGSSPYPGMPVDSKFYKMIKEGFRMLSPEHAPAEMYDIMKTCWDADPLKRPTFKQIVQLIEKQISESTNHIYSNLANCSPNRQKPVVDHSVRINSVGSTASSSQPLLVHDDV
Procedure: as §1

Chain of c-MET (P08581 25-1390): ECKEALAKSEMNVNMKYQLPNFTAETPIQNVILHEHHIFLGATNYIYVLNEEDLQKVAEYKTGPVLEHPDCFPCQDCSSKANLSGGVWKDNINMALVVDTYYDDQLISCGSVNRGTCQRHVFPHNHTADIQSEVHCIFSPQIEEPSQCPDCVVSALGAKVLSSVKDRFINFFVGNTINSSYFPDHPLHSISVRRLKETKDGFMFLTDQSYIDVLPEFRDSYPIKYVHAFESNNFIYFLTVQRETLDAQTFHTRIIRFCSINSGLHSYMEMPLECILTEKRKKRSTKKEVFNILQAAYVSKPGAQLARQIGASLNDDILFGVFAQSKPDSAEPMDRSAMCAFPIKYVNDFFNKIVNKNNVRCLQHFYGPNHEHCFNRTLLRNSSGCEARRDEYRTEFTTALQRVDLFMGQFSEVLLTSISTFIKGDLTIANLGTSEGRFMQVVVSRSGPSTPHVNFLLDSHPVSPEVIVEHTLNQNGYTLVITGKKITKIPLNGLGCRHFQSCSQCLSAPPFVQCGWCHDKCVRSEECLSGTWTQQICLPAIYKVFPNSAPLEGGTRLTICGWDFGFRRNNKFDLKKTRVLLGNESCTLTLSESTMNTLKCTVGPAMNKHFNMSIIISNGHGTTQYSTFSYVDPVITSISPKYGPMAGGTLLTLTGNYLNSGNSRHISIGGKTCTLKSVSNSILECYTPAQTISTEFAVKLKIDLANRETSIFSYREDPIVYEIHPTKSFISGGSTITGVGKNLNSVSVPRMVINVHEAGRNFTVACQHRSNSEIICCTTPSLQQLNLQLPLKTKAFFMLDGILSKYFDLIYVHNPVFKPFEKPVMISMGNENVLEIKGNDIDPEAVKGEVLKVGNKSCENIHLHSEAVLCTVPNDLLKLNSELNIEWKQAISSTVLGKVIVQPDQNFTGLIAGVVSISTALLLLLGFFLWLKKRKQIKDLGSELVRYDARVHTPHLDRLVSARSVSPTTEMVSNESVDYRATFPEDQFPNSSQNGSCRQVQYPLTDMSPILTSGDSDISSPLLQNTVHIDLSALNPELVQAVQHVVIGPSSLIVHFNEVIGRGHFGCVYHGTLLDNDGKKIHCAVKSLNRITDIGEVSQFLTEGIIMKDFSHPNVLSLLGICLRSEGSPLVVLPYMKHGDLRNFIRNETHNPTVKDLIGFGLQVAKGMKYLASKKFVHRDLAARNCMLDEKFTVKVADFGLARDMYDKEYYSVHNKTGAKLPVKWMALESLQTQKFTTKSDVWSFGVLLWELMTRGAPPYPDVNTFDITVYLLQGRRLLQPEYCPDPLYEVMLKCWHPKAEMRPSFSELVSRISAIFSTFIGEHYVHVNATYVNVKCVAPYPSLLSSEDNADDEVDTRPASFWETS
Chain of DDR1 (Q08345 19-913): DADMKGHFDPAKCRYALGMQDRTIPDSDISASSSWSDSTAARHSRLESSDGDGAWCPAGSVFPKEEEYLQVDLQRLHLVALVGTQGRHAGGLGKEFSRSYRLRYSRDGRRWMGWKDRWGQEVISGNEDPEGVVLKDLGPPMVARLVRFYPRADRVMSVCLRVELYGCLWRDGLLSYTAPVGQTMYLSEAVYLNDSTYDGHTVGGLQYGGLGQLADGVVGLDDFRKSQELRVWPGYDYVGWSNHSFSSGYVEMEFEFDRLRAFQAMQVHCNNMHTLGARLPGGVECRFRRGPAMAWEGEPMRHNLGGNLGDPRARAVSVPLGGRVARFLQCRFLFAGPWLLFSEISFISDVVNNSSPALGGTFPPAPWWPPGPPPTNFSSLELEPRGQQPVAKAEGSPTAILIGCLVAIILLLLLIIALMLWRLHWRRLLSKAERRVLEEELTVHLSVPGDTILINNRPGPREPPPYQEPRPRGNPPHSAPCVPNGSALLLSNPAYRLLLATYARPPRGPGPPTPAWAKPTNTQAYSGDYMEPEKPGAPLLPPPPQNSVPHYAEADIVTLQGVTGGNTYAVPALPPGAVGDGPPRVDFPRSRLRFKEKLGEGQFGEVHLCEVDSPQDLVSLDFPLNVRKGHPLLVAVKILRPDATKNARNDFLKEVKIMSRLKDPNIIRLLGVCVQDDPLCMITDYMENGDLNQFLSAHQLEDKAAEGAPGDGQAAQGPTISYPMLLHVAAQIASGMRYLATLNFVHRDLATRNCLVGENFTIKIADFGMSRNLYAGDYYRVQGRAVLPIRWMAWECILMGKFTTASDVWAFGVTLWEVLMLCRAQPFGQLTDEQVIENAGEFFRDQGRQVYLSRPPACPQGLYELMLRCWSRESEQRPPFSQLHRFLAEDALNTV
Chain of EPHA2 (P29317 24-976): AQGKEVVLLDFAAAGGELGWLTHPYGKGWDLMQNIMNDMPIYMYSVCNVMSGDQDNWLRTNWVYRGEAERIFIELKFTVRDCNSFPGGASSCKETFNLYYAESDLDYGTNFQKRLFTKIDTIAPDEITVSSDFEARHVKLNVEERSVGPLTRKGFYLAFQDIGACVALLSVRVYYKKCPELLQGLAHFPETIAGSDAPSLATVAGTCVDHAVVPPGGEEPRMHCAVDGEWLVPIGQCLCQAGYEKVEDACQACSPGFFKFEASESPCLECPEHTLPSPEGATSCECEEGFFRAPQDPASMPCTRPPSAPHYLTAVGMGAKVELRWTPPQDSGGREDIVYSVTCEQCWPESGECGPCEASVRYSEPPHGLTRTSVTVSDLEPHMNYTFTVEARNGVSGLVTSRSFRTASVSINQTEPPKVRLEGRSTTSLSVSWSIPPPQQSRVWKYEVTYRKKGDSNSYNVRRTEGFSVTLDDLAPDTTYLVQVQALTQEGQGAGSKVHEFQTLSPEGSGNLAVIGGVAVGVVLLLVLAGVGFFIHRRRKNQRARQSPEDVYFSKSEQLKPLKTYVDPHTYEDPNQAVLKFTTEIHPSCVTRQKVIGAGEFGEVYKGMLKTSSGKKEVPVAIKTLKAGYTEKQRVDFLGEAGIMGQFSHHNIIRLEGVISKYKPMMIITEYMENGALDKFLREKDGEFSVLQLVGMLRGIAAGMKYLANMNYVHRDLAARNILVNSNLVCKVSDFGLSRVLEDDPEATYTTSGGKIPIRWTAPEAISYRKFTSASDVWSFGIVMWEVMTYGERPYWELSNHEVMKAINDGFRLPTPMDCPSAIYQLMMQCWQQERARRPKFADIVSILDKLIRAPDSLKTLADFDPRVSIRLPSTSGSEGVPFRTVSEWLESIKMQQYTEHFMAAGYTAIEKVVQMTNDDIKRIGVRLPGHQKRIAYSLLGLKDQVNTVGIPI
Chain of FMS (P07333 20-972): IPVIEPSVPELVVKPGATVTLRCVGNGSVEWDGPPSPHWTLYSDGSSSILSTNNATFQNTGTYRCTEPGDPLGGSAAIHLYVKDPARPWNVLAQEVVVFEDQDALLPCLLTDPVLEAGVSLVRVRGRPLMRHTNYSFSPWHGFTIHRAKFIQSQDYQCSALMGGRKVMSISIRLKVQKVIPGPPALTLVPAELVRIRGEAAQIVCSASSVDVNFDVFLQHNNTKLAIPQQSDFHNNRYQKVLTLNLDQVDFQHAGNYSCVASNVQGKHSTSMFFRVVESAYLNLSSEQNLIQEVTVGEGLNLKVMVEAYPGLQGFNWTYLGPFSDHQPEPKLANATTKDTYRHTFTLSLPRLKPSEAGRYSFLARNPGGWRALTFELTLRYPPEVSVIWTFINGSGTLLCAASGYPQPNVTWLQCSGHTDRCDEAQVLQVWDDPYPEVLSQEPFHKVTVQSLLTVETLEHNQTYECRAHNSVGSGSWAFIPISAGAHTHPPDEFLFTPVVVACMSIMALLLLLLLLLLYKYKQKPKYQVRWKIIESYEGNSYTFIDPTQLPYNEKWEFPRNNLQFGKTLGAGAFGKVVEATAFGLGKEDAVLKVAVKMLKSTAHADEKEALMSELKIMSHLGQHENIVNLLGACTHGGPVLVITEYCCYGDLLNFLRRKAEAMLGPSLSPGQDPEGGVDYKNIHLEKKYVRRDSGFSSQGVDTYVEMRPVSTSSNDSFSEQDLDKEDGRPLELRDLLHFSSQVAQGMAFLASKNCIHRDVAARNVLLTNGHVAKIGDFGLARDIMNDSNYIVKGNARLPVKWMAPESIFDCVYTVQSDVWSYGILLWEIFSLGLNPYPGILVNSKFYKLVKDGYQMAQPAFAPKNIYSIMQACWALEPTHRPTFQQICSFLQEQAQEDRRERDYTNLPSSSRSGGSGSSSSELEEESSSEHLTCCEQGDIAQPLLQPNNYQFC

| Structure (SMILES) | IC50 (TYRO3/SKY) [nM] | IC50 (AXL) [nM] | IC50 (c-MER) [nM] | IC50 (LOK/STK10) [nM] | IC50 (c-MET) [nM] | IC50 (EPHA2) [nM] | IC50 (KDR/VEGFR2) [nM] | IC50 (DDR1) [nM] | IC50 (FMS) [nM] | IC50 (c-Kit) [nM] |
| --- | --- | --- | --- | --- | --- | --- | --- | --- | --- | --- |
| COc1cc2c(Oc3ccc(NC(=O)C4(C(=O)Nc5ccc(F)cc5)CC4)cc3)ccnc2cc1OC(=O)N1CCNC[C@H]1C [Compound 6-4] | 100 to 1000 | < 100 | < 100 | 100 to 1000 | < 100 | 100 to 1000 | 100 to 1000 | < 100 | < 100 | < 100 |
| COc1cc2c(Oc3ccc(NC(=O)C4(C(=O)Nc5ccc(F)cc5)CC4)cc3)ccnc2cc1OC(=O)N1CCNCC1(C)C [Compound 6-5] | 100 to 1000 | < 100 | < 100 | 100 to 1000 | < 100 | 100 to 1000 | > 1000 | < 100 | 100 to 1000 | < 100 |
| COc1cc2c(Oc3ccc(NC(=O)C4(C(=O)Nc5ccc(F)cc5)CC4)cc3)ccnc2cc1OC(=O)N1CCN(C)CC1(C)C [Compound 6-6] | 100 to 1000 | < 100 | < 100 | 100 to 1000 | 100 to 1000 | 100 to 1000 | 100 to 1000 | < 100 | 100 to 1000 | < 100 |
| COc1cc2nccc(Oc3ccc(NC(=O)C4(C(=O)Nc5ccc(F)cc5)CC4)cc3)c2cc1OC(=O)N1CCNC[C@H]1C [Compound 7-2] | < 100 | < 100 | < 100 | < 100 | < 100 | < 100 | < 100 | < 100 | < 100 | < 100 |
| COc1cc2nccc(Oc3ccc(NC(=O)C4(C(=O)Nc5ccc(F)cc5)CC4)cc3)c2cc1OC(=O)N1CCN(C)C[C@H]1C [Compound 7-3] | < 100 | < 100 | < 100 | 100 to 1000 | < 100 | 100 to 1000 | < 100 | < 100 | < 100 | < 100 |
| COc1cc2nccc(Oc3ccc(NC(=O)C4(C(=O)Nc5ccc(F)cc5)CC4)cc3)c2cc1OC(=O)N1[C@H](C)CNC[C@@H]1C [Compound 7-4] | < 100 | < 100 | < 100 | 100 to 1000 | < 100 | 100 to 1000 | < 100 | < 100 | < 100 | < 100 |
